Blank lines part the entries; values can stand above or below the compound they belong to.
Legend:
Kinematic viscosity (KV) = type: physicochemical
Method: The maleinated ester derivatives may be biodegradable and may be used as functional base oils. The functional base oil may have a kinetic viscosity (ASTM D-445) in the range from about 2 to about 1000 cSt at 100° C., or from about 2 to about 500, or from about 2 to about 100, or from about 4 to about 10 cSt. The base oil may have a viscosity up to about 35 cSt at 100° C., or in the range from about 3 to about 35 cSt, or in the range from about 5 to about 35 cSt at 100° C.

[1] = Viscosity index (ASTM D2270); type: physicochemical
From the text: The functional base oil may have a viscosity index (ASTM D2270) in the range from about 120 to about 250, or from about 130 to about 170.

[2] = tested on: microbial populations in the inoculum (activated sludge); assay: Bacterial plate counts of reaction flask solutions at Day 28; type: cell-based; conditions: study termination
Method: Bacterial plate counts are performed on the prepared activated sludge prior to initiation and each replicate reaction flask solution at Day 28. A dilution series of each sample is prepared in sterile, pH 7.2, phosphate-buffered water at 10^−2, 10^−3, 10^−4, 10^−5, and 10^−6. Duplicate 1-mL aliquots of each dilution are directly analyzed by plate counting methods patterned after methods described in Standard Methods for the Examination of Water and Wastewater. (See, American Public Health Association (APHA), American Water Works Association (AWWA), and Water Environment Federation (WEF). 1998. Standard Methods for the Examination of Water and Wastewater, 20th Edition, Part 9215 B, Pour Plate Method). The bacterial growth medium is Plate Count Agar (Difco Laboratories). The plates of inocula are incubated at 26±2° C. for five to six days before counting the number of colonies on plates with fewer than 300 colonies. The number of colonies at the dilution coming closest to 300 colonies is used to calculate colony forming units (CFU)/mL for each sample.

[3] = tested on: activated sludge (microbial inoculum); assay: Aerobic biodegradability in water containing mineral salts and activated sludge (CO2 evolution, DOC); conditions: toxicity control >25% ThCO2 by day 6
Method: A maleinized ester derivative in the form of hydrogenated 1-pentyl triester of maleinated-9-dodecene methyl ester (hereinafter the “test substance”) is evaluated for aerobic biodegradability in water containing mineral salts and activated sludge. The activated sludge is taken from a wastewater treatment plant and is used as a source of microbial inoculum. The objectives of the study are: 1) to evaluate the biodegradability (mineralization to CO2 production) potential of the test substance in an aerobic, aqueous medium; and 2) to determine the mineralization potential of a reference chemical in order to assess the viability of the test inoculum.
Approximately one liter of activated sludge is used as the microbial inoculum. The sludge is collected from the Columbia Wastewater Plant in Columbia, Miss. This plant treats predominately domestic sewage.
An aqueous mineral salts medium provides essential mineral nutrients and trace elements necessary to sustain the inoculum throughout the test period. The mineral salts medium is prepared by addition of reagent grade salts to reagent water. […]
The CO2-free air is introduced into each flask by positive pressure, and the flow rates (50-100 mL/minute) are measured and adjusted using flow meters. […] Temperature of the chamber is continuously measured using a Rees Scientific temperature monitoring system. […]

[4] = Solubility in water (observation in the biodegradation test); type: physicochemical
From the text: At study initiation, DOC concentration in the test substance replicates is not detected. […] The increase in DOC concentration from Day 0 to Day 28 is likely due to the insolubility of the test substance in water (that is, more test substance likely went into solution while stirring over time). Consequently, DOC removal cannot be calculated for the test substance.

KV (40° C.) (Kinematic viscosity (KV); 40° C.): 24.73 cSt
KV (100° C.) (Kinematic viscosity (KV); 100° C.): 5.0 cSt
viscosity index (VI) [1]: 128
Viscosity Index ([1]; Table 1, ASTM D2270): 128
Compound: CCCCCOC(=O)CCCCCC/C=C/C(CC)C(CC(=O)OCCCCC)C(=O)OCCCCC (centres unmarked) [Example 1, Tri-pentanol ester of the maleinized methyl 9-dodecenoate]

Compound: O=C([O-])c1ccccc1.[Na+] [reference substance, sodium benzoate, reference compound]
bacterial plate count ([2]; single system): 1.4×10^4 CFU/mL

Compound: hydrogenated 1-pentyl triester of maleinated-9-dodecene methyl ester [test substance]
inhibition of the inoculum (toxicity control) [3]: not be inhibitory
inhibition of the inoculum (toxicity control) ([3]; listed as triester): not inhibitory
effect on the population of microbes [2]: no significant effect on the population of microbes
bacterial plate count ([2]; replicate A): 2.4×10^4 CFU/mL
bacterial plate count ([2]; replicate B): 3.7×10^4 CFU/mL
solubility in water [4]: insoluble in water
